In the CheMixHub viscosity set:
± gives the uncertainty stated by the source.

Assay: xn = mol fraction of the nth substance listed

CCCBr + Cc1cc(C)cc(C)c1
308.15 K, 101 kPa
Settings	viscosity [mPa·s]
x2 = 0.0819	0.4452 ± 0.0039
x2 = 0.1828	0.4586 ± 0.004
x2 = 0.298	0.4744 ± 0.0041
x2 = 0.4146	0.4872 ± 0.0042
x2 = 0.5062	0.4995 ± 0.0043
x2 = 0.5971	0.5145 ± 0.0044
x2 = 0.7035	0.5257 ± 0.0045
x2 = 0.8027	0.541 ± 0.0046
x2 = 0.8945	0.5538 ± 0.0047

CCCBr + Cc1ccc(C)cc1
308.15 K, 101 kPa
Settings	viscosity [mPa·s]
x2 = 0.1032	0.4446 ± 0.0039
x2 = 0.2012	0.4528 ± 0.0039
x2 = 0.3051	0.4596 ± 0.004
x2 = 0.4051	0.469 ± 0.0041
x2 = 0.503	0.477 ± 0.0041
x2 = 0.6038	0.4865 ± 0.0042
x2 = 0.7055	0.4971 ± 0.0043
x2 = 0.8019	0.5027 ± 0.0043
x2 = 0.8965	0.5124 ± 0.0044

Nc1ccccc1 + Cc1cccc(C)c1
303 K, 101.33 kPa
Settings	viscosity [mPa·s]
x1 = 0.1	0.815 ± 0.084
x1 = 0.2	1.025 ± 0.11
x1 = 0.3	1.316 ± 0.14
x1 = 0.4	1.708 ± 0.18
x1 = 0.5	2.076 ± 0.22
x1 = 0.6	2.225 ± 0.23
x1 = 0.7	2.432 ± 0.25
x1 = 0.8	2.675 ± 0.28
x1 = 0.9	2.875 ± 0.3

CC(C)(C)O + Cc1ccccc1
viscosity [mPa·s]
Settings	298.15 K	303.15 K	308.15 K	313.15 K	318.15 K
101 kPa, x2 = 0.1121	2.432 ± 0.085	1.991 ± 0.07	1.63 ± 0.058	1.282 ± 0.047	1.05 ± 0.039
101 kPa, x2 = 0.1785	1.717 ± 0.061	1.462 ± 0.053	1.245 ± 0.045	1.027 ± 0.038	0.8744 ± 0.033
101 kPa, x2 = 0.3151	1.113 ± 0.041	0.9909 ± 0.037	0.8824 ± 0.034	0.7677 ± 0.03	0.6837 ± 0.027
101 kPa, x2 = 0.3919	0.9507 ± 0.036	0.8583 ± 0.033	0.7749 ± 0.03	0.6855 ± 0.027	0.6188 ± 0.025
101 kPa, x2 = 0.4958	0.7975 ± 0.031	0.7306 ± 0.029	0.6693 ± 0.027	0.6025 ± 0.024	0.552 ± 0.023
101.33 kPa, x2 = 0.1003	–	1.981 ± 0.031	1.622 ± 0.026	1.328 ± 0.021	–
101.33 kPa, x2 = 0.1723	–	1.455 ± 0.023	1.239 ± 0.02	1.059 ± 0.017	–
101.33 kPa, x2 = 0.3109	–	0.986 ± 0.016	0.878 ± 0.015	0.781 ± 0.013	–
101.33 kPa, x2 = 0.3886	–	0.854 ± 0.014	0.771 ± 0.013	0.696 ± 0.012	–
101.33 kPa, x2 = 0.4942	–	0.727 ± 0.013	0.666 ± 0.012	0.611 ± 0.011	–
101.33 kPa, x2 = 0.6059	–	0.644 ± 0.011	0.594 ± 0.011	0.548 ± 0.01	–
101.33 kPa, x2 = 0.7118	–	0.588 ± 0.011	0.547 ± 0.01	0.51 ± 0.007	–
101.33 kPa, x2 = 0.8135	–	0.549 ± 0.01	0.518 ± 0.01	0.486 ± 0.007	–
101.33 kPa, x2 = 0.9107	–	0.521 ± 0.01	0.49 ± 0.007	0.46 ± 0.007	–

CCCC[n+]1ccn(C)c1.[Cl][Al-]([Cl])([Cl])[Cl] + Cc1ccccc1
101 kPa, x2 = 0.37
Settings	viscosity [mPa·s]
293.15 K	18.2 ± 0.8
298.15 K	16.6 ± 0.7
303.15 K	14.6 ± 0.6
308.15 K	13.1 ± 0.6
313.15 K	11.6 ± 0.5
318.15 K	10.5 ± 0.5
323.15 K	9.6 ± 0.4

Nc1ccccc1 + Cc1ccccc1
viscosity [mPa·s], 101 kPa
Settings	298.15 K	303.15 K	308.15 K	313.15 K
x1 = 0.0977	0.62 ± 0.011	0.576 ± 0.01	0.545 ± 0.01	0.495 ± 0.009
x1 = 0.1155	–	–	0.5602 ± 0.023	–
x1 = 0.116	0.5955 ± 0.0056	–	–	–
x1 = 0.198	0.701 ± 0.012	0.653 ± 0.012	0.615 ± 0.011	0.57 ± 0.01
x1 = 0.2272	0.681 ± 0.0063	–	–	–
x1 = 0.2298	–	–	0.7052 ± 0.029	–
x1 = 0.3004	0.814 ± 0.014	0.752 ± 0.013	0.72 ± 0.013	0.65 ± 0.012
x1 = 0.3224	–	–	0.7335 ± 0.03	–
x1 = 0.3354	0.8149 ± 0.0074	–	–	–
x1 = 0.3917	0.94 ± 0.016	0.867 ± 0.015	0.803 ± 0.014	0.74 ± 0.013
x1 = 0.4199	–	–	0.8736 ± 0.036	–
x1 = 0.4399	0.9747 ± 0.0088	–	–	–
x1 = 0.4993	1.146 ± 0.019	1.074 ± 0.018	0.954 ± 0.016	0.872 ± 0.015
x1 = 0.5404	1.169 ± 0.01	–	–	–
x1 = 0.5446	–	–	1.039 ± 0.042	–
x1 = 0.6003	1.406 ± 0.023	1.253 ± 0.02	1.139 ± 0.019	1.03 ± 0.017
x1 = 0.6191	–	–	1.19 ± 0.049	–
x1 = 0.6382	1.427 ± 0.013	–	–	–
x1 = 0.69	–	–	1.391 ± 0.057	–
x1 = 0.6978	1.723 ± 0.027	1.522 ± 0.024	1.367 ± 0.022	1.216 ± 0.02
x1 = 0.7815	–	–	1.647 ± 0.067	–
x1 = 0.8009	2.199 ± 0.034	1.907 ± 0.03	1.696 ± 0.027	1.486 ± 0.024
x1 = 0.835	–	–	1.891 ± 0.077	–
x1 = 0.8998	2.822 ± 0.043	2.423 ± 0.038	2.122 ± 0.033	1.863 ± 0.029

CCCBr + ClC(Cl)(Cl)Cl
viscosity [mPa·s], 101 kPa
Settings	293.15 K	303.15 K	313.15 K	323.15 K
x1 = 0.143	0.855 ± 0.018	0.76 ± 0.016	0.678 ± 0.015	0.61 ± 0.013
x1 = 0.294	0.775 ± 0.017	0.691 ± 0.015	0.621 ± 0.013	0.562 ± 0.012
x1 = 0.445	0.7 ± 0.015	0.625 ± 0.014	0.565 ± 0.012	0.512 ± 0.011
x1 = 0.625	0.637 ± 0.014	0.581 ± 0.013	0.52 ± 0.011	0.472 ± 0.01

COCCOCCOCCOC + ClC(Cl)(Cl)Cl
298.15 K, 101 kPa
Settings	viscosity [mPa·s]
x1 = 0.0041	0.912 ± 0.013
x1 = 0.0202	0.952 ± 0.013
x1 = 0.0485	1 ± 0.014
x1 = 0.0921	1.08 ± 0.015
x1 = 0.1704	1.198 ± 0.016
x1 = 0.2242	1.288 ± 0.017
x1 = 0.2579	1.333 ± 0.017
x1 = 0.2736	1.364 ± 0.018
x1 = 0.3237	1.437 ± 0.018
x1 = 0.3887	1.52 ± 0.019
x1 = 0.4494	1.59 ± 0.02
x1 = 0.5	1.646 ± 0.021
x1 = 0.5522	1.696 ± 0.022
x1 = 0.6149	1.75 ± 0.022
x1 = 0.6542	1.79 ± 0.023
x1 = 0.7187	1.826 ± 0.023
x1 = 0.7623	1.846 ± 0.023
x1 = 0.8533	1.891 ± 0.024
x1 = 0.8992	1.913 ± 0.024
x1 = 0.9312	1.929 ± 0.024

COCCOCCOCCO + ClC(Cl)=C(Cl)Cl
298.15 K, 101.33 kPa
Settings	viscosity [mPa·s]
x1 = 0.0078	0.862 ± 0.009
x1 = 0.016	0.883 ± 0.009
x1 = 0.0295	0.915 ± 0.009
x1 = 0.047	0.956 ± 0.009
x1 = 0.0598	0.989 ± 0.01
x1 = 0.0696	1.016 ± 0.01
x1 = 0.0802	1.046 ± 0.01
x1 = 0.0924	1.081 ± 0.011
x1 = 0.1201	1.162 ± 0.011
x1 = 0.1568	1.28 ± 0.013
x1 = 0.2009	1.432 ± 0.014
x1 = 0.2413	1.592 ± 0.016
x1 = 0.2894	1.795 ± 0.018
x1 = 0.3457	2.047 ± 0.02
x1 = 0.3797	2.209 ± 0.022
x1 = 0.4041	2.334 ± 0.023
x1 = 0.462	2.64 ± 0.027
x1 = 0.4933	2.812 ± 0.028
x1 = 0.5379	3.072 ± 0.031
x1 = 0.5783	3.326 ± 0.034
x1 = 0.6154	3.56 ± 0.037
x1 = 0.6587	3.856 ± 0.04
x1 = 0.7026	4.163 ± 0.044
x1 = 0.7393	4.431 ± 0.047
x1 = 0.787	4.797 ± 0.051
x1 = 0.8264	5.117 ± 0.055
x1 = 0.886	5.597 ± 0.061
x1 = 0.9108	5.82 ± 0.064
x1 = 0.9403	6.053 ± 0.067
x1 = 0.9649	6.276 ± 0.069
x2 = 0.0193	6.411 ± 0.071

COCCOCCOCCOC + ClC(Cl)Cl
298.15 K, 101 kPa
Settings	viscosity [mPa·s]
x1 = 0.0083	0.569 ± 0.01
x1 = 0.0278	0.622 ± 0.01
x1 = 0.0552	0.702 ± 0.011
x1 = 0.0851	0.795 ± 0.012
x1 = 0.1347	0.962 ± 0.013
x1 = 0.195	1.16 ± 0.015
x1 = 0.241	1.295 ± 0.017
x1 = 0.2903	1.425 ± 0.018
x1 = 0.3545	1.559 ± 0.02
x1 = 0.4174	1.678 ± 0.021
x1 = 0.4686	1.717 ± 0.022
x1 = 0.5236	1.766 ± 0.022
x1 = 0.5853	1.809 ± 0.023
x1 = 0.631	1.836 ± 0.023
x1 = 0.708	1.868 ± 0.024
x1 = 0.7445	1.893 ± 0.024
x1 = 0.8071	1.901 ± 0.024
x1 = 0.8627	1.918 ± 0.024
x1 = 0.9174	1.934 ± 0.024
x2 = 0.0147	1.949 ± 0.024
